Source: patent US7148248B2, “Method of treating or inhibiting the development of brain inflammation and sepsis” (priority 2002, dated 2006)
Where two headings read alike, the source gives them in different places.

Tests used:
sepsis = conditions: cited from earlier work
[1] = mice, cited from earlier work
[2] = test system: arachidonic acid-induced brain inflammation; experiment: brain inflammation induced by arachidonic acid in the subarachnoid space (CSF volume and WBC count in CSF); assay type: in vivo, rat
Procedure: Male rats, approximately 350–400 g, were anesthetized with sodium pentobarbital at a dose of 50 mg/kg intraperitoneally (i.p.). Animals were then placed in a stereotaxic unit. Fur from the top of the head to neck was shaved. The study area was disinfected with 70% ethanol followed by a 10% providone-iodine solution. Skin and muscle over the cervical cord were dissected until cervical vertebrae were exposed. A hole was made using a 23G3/4 needle passing through the dura via the cisterna magna. One end of a 2–3 mm PE10 cannula (0.011 “I.D., 0.007” thick, 0.024” O.D., 6.5 cm long) was inserted into the subarachnoid space at the cervical cord so as to avoid damage to neuronal tissue (FIG. 3). The cannula was fixed with cyanoacrylic glue to the peripheral tissue. […] The cannula filled with CSF immediately after the cannulation. Air was infused to inject AA to the subarachnoid space. The muscles and skin were closed with surgical staples. The rat was then removed from the stereotaxic unit and placed on a heat pad and continuously monitored. […] If the effects of the anesthesia appeared to be wearing off, an additional 0.05–0.1 ml pentobarbital (50 mg/ml, i.p.) dose was administered. If at any time during the experiment, the animal appeared to be in pain or distress, the study was immediately stopped and the animal was euthanized. In the present study, the volume (μl) of cerebrospinal fluid (CSF) and white blood cell (WBC) counts in CSF was measured every thirty minutes for 11 hours from the same rat. One side of the cannula (PE10) was inserted into the subarachnoid space under pentobarbital anesthesia, avoiding neuronal damage (FIG. 3). If the brain tissue is damaged, the volume of CSF and WBC increases immediately without the administration of arachidonic acid. Since there are no WBC in the CSF in the normal rat, only rats that had no WBC in the CSF immediately after the cannulation were used. Another side of the cannula remained open and was used for the administration of nociceptive stimuli (arachidonic acid, LPS, dextran, etc.) and subsequently for collecting the CSF every thirty minutes during the experiment. The CSF volume was measured using a micropipette and WBC in the CSF were counted by means of a hemacytometer.

[3] = rats, cited from earlier work
[4] = cited from earlier work
[5] = test system: ischemia (occlusion of both carotid arteries); experiment: rat ischemia model, reversible 30 minute occlusion of both carotid arteries followed by reperfusion; assay type: in vivo; conditions: 450 mg/kg i.p. 30 minutes before the occlusion
[6] = test system: dextran-induced paw edema; experiment: dextran-induced rat paw edema; assay type: in vivo
Source text: Therefore, it was expected that such a mechanism might also come into play at the central nervous system level.

[7] = test system: interleukin-6 induced leukocyte in CSF; experiment: interleukin-6 induced white blood cell infiltration into CSF (sepsis model); assay type: in vivo, dog; conditions: 300, 500, 1000 mg/kg p.o. 30 minutes before interleukin-6; for three days
Source text: TNF-α, interleukin-1 and interleukin-6 produced by activated macrophages at the site of the nociceptive stimuli play a particularly important role in mediating acute-phase inflammation as well as sepsis. In fact, proinflammatory cytokines administered to the outside of the blood brain barrier through the chronically in-dwelling intracerebroventricular catheter attached to an Ommaya reservoir increase white blood cell count (characterized by neutrophilic response and lymphocyte respectively) in the cerebrospinal fluid in dogs. The inflammation induced by interleukin-6, was longer lasting (starting from 2 hours, peak time are 10–24 hours lasting 24–72 hours) than that induced by interleukin-1β and TNF-α. In the present studies presented in the Examples hereinbelow, the inflammation caused by interleukin-6 was used as a sepsis model, measuring the amount of infiltrating white blood cells in the cerebrospinal fluid.

[8] = cited from earlier work; remark: listed apart in the source
focal cerebral ischemia = conditions: cited from earlier work

For `C[C@]12CCC(=O)C=C1CC[C@@H]1[C@@H]2[C@@H](O)C[C@@]2(C)[C@H]1CC[C@]2(O)C(=O)CO` [Hydrocortisone], the Effect (sepsis; large dose (100 mg i.v. then 0.18/kg/hr)) is listed as “none or worse” and the Effect (sepsis; small dose (100 mg i.v./every 8 hours)) is listed as “effective”.
For `O=C(Nc1cccc2c(=O)cc(-c3nnn[nH]3)oc12)c1ccc(OCCCCc2ccccc2)cc1` [pranlukast], the LD50 ([1]; p.o.) is listed as greater than 2000 mg/kg, the LD50 ([1]; s.c.) is listed as greater than 2000 mg/kg and the “effect on brain inflammation caused by a large dose of arachidonic acid” value ([2]; arachidonic acid 6.25 μg/2.0 μl, pranlukast 450 mg/kg p.o.) is listed as “not inhibited by pranlukast (450 mg/kg; p.o.) but was attenuated”. The “time until white blood cell count returned to normal (=zero) after arachidonic acid” value ([2]; arachidonic acid 6.25 μg/2.0 μl, pranlukast 450 mg/kg p.o., 5 days without pranlukast) was 36 h, the “inhibition of the increase of CSF volume” value ([2]; pranlukast 450 mg/kg i.p. thirty minutes before arachidonic acid 3.25 μg/2 μl, n=4) was “completely inhibited” and the “inhibition of inflammation caused by arachidonic acid” value ([2]; pranlukast 450 mg/kg i.p., arachidonic acid 3.25 μg/2 μl) was “completely inhibits”. The LD50 ([3]; p.o.) was greater than 2000 mg/kg, the LD50 ([3]; s.c.) was greater than 2000 mg/kg and the “time the maximum blood concentration was maintained” value ([4]; 20 mg/kg p.o.) was “at least 5 hours”. The “time to maximum blood concentration” value ([4]; 20 mg/kg p.o.) was “within one hour”, the “pranlukast in blood 24 hours after administration” value ([4]; low doses (20 mg/kg p.o.)) was “no pranlukast was observed” and the survival [5] was “One of 4–5 rats survived for one week”. The “inhibition of dextran-induced paw edema” value ([6]; 450 mg/kg, administered intraperitoneally) was “completely inhibited”, the “inhibition of dextran-caused paw edema” value ([6]; 450 mg/kg, administered orally (FIG. 2)) was “completely inhibited” and the “dose dependence of inhibition of dextran-induced paw edema” value ([6]; rat, in vivo) was “dose-dependent fashion”. For the same compound, the “inhibition of interleukin-6 induced leukocyte in CSF” value [7] was “completely inhibited”, the “behavior, changes in body weight and food intake compared with control group” value ([8]; single 30-1000 mg/kg p.o. and repeated 30-1000 mg/kg/day p.o. for three and six months) was “normal” and the “urine examination and histopathological examinations” value ([8]; single and repeated administration) was “normal”. For the same compound, the “effect on death of brain cells” value (focal cerebral ischemia; 0.003-1.0 mg/kg i.p. 30 minutes before MCA occlusion and 2 hours after reperfusion, evaluated 24 hours after reperfusion) was “inhibited the death of brain cells” and the most effective dose (focal cerebral ischemia; Zhang et al (2002)) was 0.1 mg/kg.
